Results taken from patent US12012390B2, “Flavone compounds for the treatment and prophylaxis of hepatitis B virus disease” (priority 2018, dated 2024).
Like-named read-outs stand apart in the source and are kept apart here.

How the values were obtained:
[1] = system: HBeAg level (surrogate marker for cccDNA) in HepDES19 cells; assay: Engineered HepDES19 primary screen assay (HBeAg as surrogate marker for cccDNA); format: cell-based, HBV
Method in brief: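 HepDES19 cells were induced by Tet withdrawal for 8 days, then exposed to half-log compound dilutions (1% DMSO) for 5 days at 37° C. HBeAg, a cccDNA surrogate, was measured by ELISA; viability by CCK-8. IC50 from 4-parameter logistic fit.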

[2] = system: HBV in primary human hepatocytes (PHH); assay: Cryopreserved primary human hepatocytes (PHH) HBV infection assay; format: cell-based; conditions: HBV-infected cryopreserved PHH, 9 days post-compound treatment
Method: This assay is used to confirm the anti-HBV effect of the compounds in HBV PHH infection assay. Cryopreserved PHH (BioreclamationIVT, Lot YJM) was thawed at 37° C. and gently transferred into pre-warmed InVitroGRO HT medium (BioreclamationIVT, Cat. S03317). The mixture was centrifuged at 70 relative centrifugal force (RCF) for 3 minutes at RT, and the supernatant was discarded. Pre-warmed InVitroGRO CP medium (BioreclamationIVT, Cat #S03316) was added to the cell pellet to gently re-suspend cells. The cells were seeded at the density of 5.8×10^4 cells per well to collagen I coated 96-well plate (Gibco, Cat. A1142803) with the InVitroGRO CP medium. All plates were incubated at 37° C. with 5% CO2 and 85% humidity.
At 20 hours after plating, the medium was changed to PHH culture medium (Dulbecco's Modified Eagle Medium (DMEM)/F12 (1:1) (Gibco, Cat. 11320-033), 10% fetal bovine serum (Gibco Cat. 10099141), 100 U/mL penicillin, 100 μg/mL streptomycin (Gibco, Cat. 151401-122), 5 ng/mL human epidermal growth factor (Invitrogen Cat. PHG0311L), 20 ng/mL dexamethasone (Sigma, Cat. D4902) and 250 ng/mL human recombinant insulin (Gibco, Cat. 12585-014)). And the cells were incubated at 37° C. with 5% CO2 and 85% humidity for 4 hours. The medium was then changed to pre-warmed PHH culture medium containing 4% polyethylene glycol (PEG) MW8000 (Sigma, Cat. P1458-50ML) and 1% DMSO (Sigma, Cat. D2650). 5.8×10^6 genomic equivalents of HBV were added into the medium.
At 24 hours post-infection, the cells were gently washed with PBS and refreshed with PHH culture medium supplemented with 1% DMSO, and 0.25 mg/mL Matrix gel (Corning, Cat. 356237) at 200 μL per well. All plates were immediately placed in at 37° C. CO2 incubator.
24 hours later, serial dilutions of compounds made with DMSO were further diluted with the same culture medium (PHH culture medium supplemented with 1% DMSO and 0.25 mg/mL Matrix gel as described above) before they were added to the cells to reach desired final compound concentrations and 1% DMSO concentration. The medium containing the compounds were refreshed every three days.
At 9 days post-compound treatment, extracellular HBsAg level were measured with Chemiluminescence Immuno Assay (CLIA) kit (Autobio, HBsAg Quantitative CLIA). Extracellular HBV DNA was extracted by MagNA Pure 96 system (Roche) and then determined by quantitative PCR with the following primers and probe: […]
HBsAg IC50 and HBV DNA IC50 values were derived from the dose-response curve using 4 parameter logistic curve fit method. The compounds of formula (I) have HBsAg IC50<20 μM, particularly <1 μM; and HBV DNA IC50<50 μM. Test results of the compounds of this invention as well as the reference compounds in Cryopreserved PHH assay are given in Table 2 and Table 3.

[3] = Hepatitis B virus, HepDES19, 120 h, read-out: IC50 (HBeAg) in HepDES19 primary screen assay, HepDES19 cells, 5 days incubation with compound, HBeAg by ELISA
[4] = Hepatitis B virus, Hepatocyte, 216 h, extracellular HBsAg by CLIA, read-out: HBsAg IC50
[5] = read-out: IC50 (HBeAg) in HepDES19 primary screen assay, HepDES19 cells, 5 days incubation with compound, HBeAg by ELISA

Compound | IC50 [1, 3] [µM] | IC50 [2, 4] [µM] | IC50 ([2]; Hepatitis B virus, Hepatocyte, 216 h, extracellular HBV DNA by quantitative PCR, read-out: HBV DNA IC50) [µM] | IC50 [1, 5] [µM] | IC50 ([2]; extracellular HBsAg by CLIA, read-out: HBsAg IC50) [µM]
COc1ccc2c(=O)c(-c3ccc(C(=O)O)cc3)coc2c1 [Example F-3, 4-(7-methoxy-4-oxo-chromen-3-yl)benzoic acid, reference compound] | > 50 | > 100 |  |  | 
O=C(O)c1cccc(OCC(O)COc2ccc(-c3cc(=O)c4cccc(Cl)c4o3)cc2)c1 (stereo not drawn) [Example 14, 3-[3-[4-(8-chloro-4-oxo-chromen-2-yl)phenoxy]-2-hydroxy-propoxy]benzoic acid] | 20.4 | 19.2 |  |  | 
COC(=O)[C@H]1C[C@@H](OCCOc2cnc(-c3cc(=O)c4cccc(Cl)c4o3)cn2)C1 [Example 40, Cis-methyl 3-[2-[5-(8-chloro-4-oxo-chromen-2-yl)pyrazin-2-yl]oxyethoxy]cyclobutanecarboxylate] | 1.61 | 7.12 |  |  | 
O=C(O)C1CC(OCCOc2ccc(-c3oc4c(Cl)cc(F)cc4c(=O)c3OC(F)(F)F)cc2)C1 (stereo not drawn) [Example 63, 3-[2-[4-[8-chloro-6-fluoro-4-oxo-3-(trifluoromethoxy)chromen-2-yl]phenoxy]ethoxy]cyclobutanecarboxylic acid] | 1.81 | 5.36 |  |  | 
O=C(O)COCCOc1ccc(-c2cc(=O)c3cccc(Cl)c3s2)cc1 [Example 58, 2-[2-[4-(8-chloro-4-oxo-thiochromen-2-yl)phenoxy]ethoxy]acetic acid] | 0.52 | 0.57 |  |  | 
COc1cc(OCCOC2CC(C(=O)O)C2)ccc1-c1cc(=O)c2cccc(Cl)c2o1 (stereo not drawn) [Example 50, 3-[2-[4-(8-chloro-4-oxo-chromen-2-yl)-3-methoxy-phenoxy]ethoxy]cyclobutanecarboxylic acid] | 1.78 | 10.2 |  |  | 
O=C(O)c1cccc(OCCOc2ccc(-c3cc(=O)c4cccc(Cl)c4o3)cc2)c1 [Example 3, 3-[2-[4-(8-chloro-4-oxo-chromen-2-yl)phenoxy]ethoxy]benzoic acid] | 0.15 | 12.5 | 35.7 |  | 
CCOC(=O)C1CC1OCCOc1ccc(-c2cc(=O)c3cccc(Cl)c3o2)cc1 (single isomer, unassigned) [Example 4-B, ethyl 2-[2-[4-(8-chloro-4-oxo-chromen-2-yl)phenoxy]ethoxy]cyclopropanecarboxylate] |  |  |  | 5.23 | 0.51
O=C(O)C1CCC(OCCOc2ccc(-c3cc(=O)c4cccc(Cl)c4o3)cc2)C1 (stereo not drawn) [Example 6, 3-[2-[4-(8-chloro-4-oxo-chromen-2-yl)phenoxy]ethoxy]cyclopentanecarboxylic acid] | 1.95 | 0.86 |  |  | 
COc1ccc(Cl)c2oc(-c3ccc(OCCO[C@H]4C[C@@H](C(=O)O)C4)cc3)cc(=O)c12 [Example 25, Cis-3-[2-[4-(8-chloro-5-methoxy-4-oxo-chromen-2-yl)phenoxy]ethoxy]cyclobutanecarboxylic acid] | 1.05 | 0.93 |  |  | 
O=c1cc(-c2ccc(OCCO[C@H]3C[C@@H](C(=O)O)C3)cc2)oc2c(Cl)ccc(C3CC3)c12 [Example 30, Cis-3-[2-[4-(8-chloro-5-cyclopropyl-4-oxo-chromen-2-yl)phenoxy]ethoxy]cyclobutanecarboxylic acid] | 0.13 | 7.29 |  |  | 
Cc1cc(-c2cc(=O)c3cccc(Cl)c3o2)ccc1OCCOC1CC(C(=O)O)C1 (stereo not drawn) [Example 47, 3-[2-[4-(8-chloro-4-oxo-chromen-2-yl)-2-methyl-phenoxy]ethoxy]cyclobutanecarboxylic acid] | 0.04 | 0.24 |  |  | 
N#Cc1ccc2c(=O)cc(-c3ccc(OCCOC4CC(C(=O)O)C4)cc3)oc2c1Cl (stereo not drawn) [Example 23, 3-[2-[4-(8-chloro-7-cyano-4-oxo-chromen-2-yl)phenoxy]ethoxy]cyclobutanecarboxylic acid] | 21.1 | 7.11 |  |  | 
O=C(O)C1CC(OCCOc2ccc(-c3cc(=O)c4ccc(C(F)(F)F)c(Cl)c4o3)cc2)C1 (stereo not drawn) [Example 69, 3-[2-[4-[8-chloro-4-oxo-7-(trifluoromethyl)chromen-2-yl]phenoxy]ethoxy]cyclobutanecarboxylic acid] | 10.7 | 2.01 |  |  | 
CC(C)(COCCOc1ccc(-c2cc(=O)c3cccc(Cl)c3o2)cc1)C(=O)O [Example 11, 3-[2-[4-(8-chloro-4-oxo-chromen-2-yl)phenoxy]ethoxy]-2,2-dimethyl-propanoic acid] | 0.57 | 12.5 |  |  | 
Cc1cc(-c2cc(=O)c3ccc(C(F)(F)F)c(Cl)c3o2)ccc1OCCOC1CC(C(=O)O)C1 (stereo not drawn) [Example 72, 3-[2-[4-[8-chloro-4-oxo-7-(trifluoromethyl)chromen-2-yl]-2-methyl-phenoxy]ethoxy]cyclobutanecarboxylic acid] | 14.4 | 7.41 |  |  | 
O=C(O)C1CC(OCCOc2ccc(-c3cc(=O)c4cc(C5CC5)cc(Cl)c4o3)cc2)C1 (stereo not drawn) [Example 67, 3-[2-[4-(8-chloro-6-cyclopropyl-4-oxo-chromen-2-yl)phenoxy]ethoxy]cyclobutanecarboxylic acid] | 14.1 | 2.77 |  |  | 
O=c1cc(-c2ccc(OCCO[C@H]3C[C@@H](C(=O)O)C3)nc2)oc2c(Cl)cccc12 (single isomer, unassigned) [Example 38-A, 3-[2-[[5-(8-chloro-4-oxo-chromen-2-yl)-2-pyridyl]oxy]ethoxy]cyclobutanecarboxylic acid] |  | 0.46 |  | 5.29 | 
O=c1cc(-c2ccc(OCCO[C@H]3C[C@@H](C(=O)O)C3)c(Cl)c2)oc2c(Cl)c(C(F)(F)F)ccc12 [Example 73, Cis-3-[2-[2-chloro-4-[8-chloro-4-oxo-7-(trifluoromethyl)chromen-2-yl]phenoxy]ethoxy]cyclobutanecarboxylic acid] | 15.4 | 6.77 |  |  | 
